# From patent US11148991B2, “5-bromo-2-(alpha-hydroxypentyl)benzoic acid sodium salts in different crystal forms, and preparation method thereof” (priority 2013, dated 2021)
# Where two headings read alike, the source gives them in different places.
# What was measured:
# [1] = system: liver and kidney functions in rats; assay: Sub-acute toxic effect on liver and kidney functions in rats; format: in vivo; design: AST: unit not given here; details: for Albumin (ALB) / Total Proteins (TP): in g/L (unit assumed); for Creatinine (CRE): in µmol/L (unit assumed)
# blood routine tests = assay: Sub-acute toxic effect on blood routine tests; format: in vivo, Rat; design: WBC / RBC: unit not given beside the values; details: for PLT: in 10^9/L (unit assumed); for Lymphocyte (LYM): in % (unit assumed); for HGB: in g/L (unit assumed)
# [2] = system: blood coagulation functions in rats; assay: Sub-acute toxic effect on blood coagulation functions in rats; format: in vivo
# [3] = Effect on body weight of rats; format: in vivo; details: for BW: in g (unit assumed)
# [4] = Solubility in water and methanol; format: physicochemical
# [5] = Stability in water and methanol solution; format: physicochemical; details: sodium salt
# Rat = assay: Sub-acute toxicity, rat
# [6] = Acute toxicity (LD50), rat; details: in vivo
# [7] = Acute toxicity (LD50), mouse; details: in vivo
# [8] = rats F, iv (12 mg/kg), in U/L (unit assumed)
# [9] = Day 6, rats F, ig group 20 mg/kg
# [10] = Day 6, rats F, iv group 12 mg/kg
# [11] = Day 6, rats M, ig group 20 mg/kg
# [12] = Day 6, rats M, iv group 12 mg/kg
# [13] = Day 11, rats F, ig group 20 mg/kg
# [14] = Day 11, rats F, iv group 12 mg/kg
# [15] = Day 11, rats M, ig group 20 mg/kg
# [16] = Day 11, rats M, iv group 12 mg/kg
# [17] = Day 16, rats F, ig group 20 mg/kg
# [18] = Day 16, rats F, iv group 12 mg/kg
# [19] = Day 16, rats M, ig group 20 mg/kg
# [20] = Day 16, rats M, iv group 12 mg/kg
# [21] = Day 21, rats F, ig group 20 mg/kg
# [22] = Day 21, rats F, iv group 12 mg/kg
# [23] = Day 21, rats M, ig group 20 mg/kg
# [24] = Day 21, rats M, iv group 12 mg/kg
# [25] = Day 24, rats F, ig group 20 mg/kg
# [26] = Day 24, rats F, iv group 12 mg/kg
# [27] = Day 24, rats M, ig group 20 mg/kg
# [28] = Day 24, rats M, iv group 12 mg/kg
smiles,measurement,setting,value
"CCCCC(O)c1ccc(Br)cc1C(=O)[O-].[Na+] (stereo not drawn) [BZP (amorphous form), 5-bromo-2-(α-hydroxypentyl)benzoic acid sodium salt]",AST,"[1]; rats F, ig (20 mg/kg)",168.00 ± 17.19
same,Blood urea nitrogen (BUN),"[1]; rats F, ig (20 mg/kg)",3.80 ± 0.59
same,Total Bilirubin (TBIL),"[1]; rats F, ig (20 mg/kg)",2.10 ± 0.40
same,Creatinine kinase (CK),"[1]; rats F, ig (20 mg/kg), in U/L (unit assumed)",776.00 ± 437.68
same,Albumin (ALB),"[1]; rats F, ig (20 mg/kg)",32.43 ± 1.14
same,Total Proteins (TP),"[1]; rats F, ig (20 mg/kg)",46.63 ± 1.07
same,Creatinine (CRE),"[1]; rats F, ig (20 mg/kg)",57.50 ± 3.11
same,AST,"[1]; rats F, iv (12 mg/kg)",202.40 ± 68.12
same,Blood urea nitrogen (BUN),"[1]; rats F, iv (12 mg/kg)",4.00 ± 0.43
same,Total Bilirubin (TBIL),"[1]; rats F, iv (12 mg/kg)",2.72 ± 0.67
same,ALT,[1]; [8],38.00 ± 9.82
same,Creatinine kinase (CK),[1]; [8],636.80 ± 536.05
same,Albumin (ALB),"[1]; rats F, iv (12 mg/kg)",33.96 ± 1.71
same,Total Proteins (TP),"[1]; rats F, iv (12 mg/kg)",49.00 ± 0.79
same,Creatinine (CRE),"[1]; rats F, iv (12 mg/kg)",55.40 ± 2.30
same,AST,"[1]; rats M, ig (20 mg/kg)",4.92 ± 0.75
same,Blood urea nitrogen (BUN),"[1]; rats M, ig (20 mg/kg)",2.76 ± 1.09
same,Total Bilirubin (TBIL),"[1]; rats M, ig (20 mg/kg)",2.24 ± 1.50
same,Creatinine kinase (CK),"[1]; rats M, ig (20 mg/kg), in U/L (unit assumed)",938.60 ± 553.43
same,Albumin (ALB),"[1]; rats M, ig (20 mg/kg)",28.98 ± 7.34
same,Total Proteins (TP),"[1]; rats M, ig (20 mg/kg)",40.26 ± 15.78
same,Creatinine (CRE),"[1]; rats M, ig (20 mg/kg)",38.80 ± 25.62
same,AST,"[1]; rats M, iv (12 mg/kg)",5.34 ± 1.33
same,Blood urea nitrogen (BUN),"[1]; rats M, iv (12 mg/kg)",3.46 ± 0.72
same,Total Bilirubin (TBIL),"[1]; rats M, iv (12 mg/kg)",3.10 ± 1.23
same,Creatinine kinase (CK),"[1]; rats M, iv (12 mg/kg), in U/L (unit assumed)",762.00 ± 351.72
same,Albumin (ALB),"[1]; rats M, iv (12 mg/kg)",36.90 ± 6.72
same,Total Proteins (TP),"[1]; rats M, iv (12 mg/kg)",53.40 ± 8.69
same,Creatinine (CRE),"[1]; rats M, iv (12 mg/kg)",66.60 ± 15.09
same,Basophil (RAS),"blood routine tests; F, ig (20 mg/kg)",1.43 ± 1.17
same,Eosinophil (EOS),"blood routine tests; F, ig (20 mg/kg)",0.23 ± 0.12
same,Monocyte (MON),"blood routine tests; F, ig (20 mg/kg)",2.05 ± 1.74
same,Neutrophil (NEU),"blood routine tests; F, ig (20 mg/kg)",28.44 ± 10.20
same,RBC,"blood routine tests; F, ig (20 mg/kg)",4.51 ± 3.30
same,WBC,"blood routine tests; F, ig (20 mg/kg)",4.44 ± 2.24
same,PLT,"blood routine tests; F, ig (20 mg/kg)",1146.00 ± 74.22
same,Lymphocyte (LYM),"blood routine tests; F, ig (20 mg/kg)",66.45 ± 11.13
same,HGB,"blood routine tests; F, ig (20 mg/kg)",117.00 ± 19.70
same,Basophil (RAS),"blood routine tests; F, iv (12 mg/kg)",0.56 ± 0.15
same,Eosinophil (EOS),"blood routine tests; F, iv (12 mg/kg)",0.76 ± 0.50
same,Monocyte (MON),"blood routine tests; F, iv (12 mg/kg)",3.62 ± 0.63
same,Neutrophil (NEU),"blood routine tests; F, iv (12 mg/kg)",21.44 ± 2.74
same,RBC,"blood routine tests; F, iv (12 mg/kg)",6.95 ± 1.06
same,WBC,"blood routine tests; F, iv (12 mg/kg)",5.20 ± 1.53
same,PLT,"blood routine tests; F, iv (12 mg/kg)",1075.00 ± 41.70
same,Lymphocyte (LYM),"blood routine tests; F, iv (12 mg/kg)",73.62 ± 2.16
same,HGB,"blood routine tests; F, iv (12 mg/kg)",125.60 ± 16.68
same,Basophil (RAS),"blood routine tests; M, ig (20 mg/kg)",0.62 ± 0.25
same,Eosinophil (EOS),"blood routine tests; M, ig (20 mg/kg)",0.56 ± 0.50
same,Monocyte (MON),"blood routine tests; M, ig (20 mg/kg)",4.93 ± 1.91
same,Neutrophil (NEU),"blood routine tests; M, ig (20 mg/kg)",23.88 ± 5.48
same,RBC,"blood routine tests; M, ig (20 mg/kg)",7.61 ± 0.28
same,WBC,"blood routine tests; M, ig (20 mg/kg)",5.18 ± 0.71
same,PLT,"blood routine tests; M, ig (20 mg/kg)",1258.20 ± 281.33
same,Lymphocyte (LYM),"blood routine tests; M, ig (20 mg/kg)",70.84 ± 3.99
same,HGB,"blood routine tests; M, ig (20 mg/kg)",134.00 ± 19.13
same,Basophil (RAS),"blood routine tests; M, iv (12 mg/kg)",0.40 ± 0.12
same,Eosinophil (EOS),"blood routine tests; M, iv (12 mg/kg)",0.60 ± 0.29
same,Monocyte (MON),"blood routine tests; M, iv (12 mg/kg)",3.80 ± 0.70
same,Neutrophil (NEU),"blood routine tests; M, iv (12 mg/kg)",22.16 ± 4.14
same,RBC,"blood routine tests; M, iv (12 mg/kg)",7.86 ± 0.40
same,WBC,"blood routine tests; M, iv (12 mg/kg)",5.66 ± 2.23
same,PLT,"blood routine tests; M, iv (12 mg/kg)",1087.20 ± 56.34
same,Lymphocyte (LYM),"blood routine tests; M, iv (12 mg/kg)",72.50 ± 4.66
same,HGB,"blood routine tests; M, iv (12 mg/kg)",141.40 ± 7.20
same,APTT,"[2]; rats F, ig (20 mg/kg)",22.8 ± 5.9 s
same,FIB,"[2]; rats F, ig (20 mg/kg)",7.22 ± 0.97 g/L
same,PT,"[2]; rats F, ig (20 mg/kg)",17.5 ± 2.2 s
same,TT,"[2]; rats F, ig (20 mg/kg)",27.3 ± 2.4 s
same,APTT,"[2]; rats F, iv (12 mg/kg)",22.3 ± 8.5 s
same,FIB,"[2]; rats F, iv (12 mg/kg)",6.63 ± 0.95 g/L
same,PT,"[2]; rats F, iv (12 mg/kg)",18.8 ± 3.3 s
same,TT,"[2]; rats F, iv (12 mg/kg)",27.5 ± 2.8 s
same,APTT,"[2]; rats M, ig (20 mg/kg)",26.5 ± 3.2 s
same,FIB,"[2]; rats M, ig (20 mg/kg)",7.03 ± 0.29 g/L
same,PT,"[2]; rats M, ig (20 mg/kg)",16.4 ± 3.4 s
same,TT,"[2]; rats M, ig (20 mg/kg)",26.9 ± 5.9 s
same,APTT,"[2]; rats M, iv (12 mg/kg)",23.7 ± 2.1 s
same,FIB,"[2]; rats M, iv (12 mg/kg)",6.28 ± 0.55 g/L
same,PT,"[2]; rats M, iv (12 mg/kg)",17.5 ± 2.0 s
same,TT,"[2]; rats M, iv (12 mg/kg)",27.1 ± 3.8 s
same,BW,"[3]; Day 1, rats F, ig group 20 mg/kg",179 ± 12
same,BW,"[3]; Day 1, rats F, iv group 12 mg/kg",182 ± 13
same,BW,"[3]; Day 1, rats M, ig group 20 mg/kg",183 ± 8
same,BW,"[3]; Day 1, rats M, iv group 12 mg/kg",179 ± 13
same,ΔW (%),[3]; [9],7 ± 4%
same,BW,[3]; [9],192 ± 16
same,ΔW (%),[3]; [10],7 ± 2%
same,BW,[3]; [10],195 ± 12
same,ΔW (%),[3]; [11],15 ± 3%
same,BW,[3]; [11],210 ± 8
same,ΔW (%),[3]; [12],14 ± 6%
same,BW,[3]; [12],204 ± 7
same,ΔW (%),[3]; [13],7 ± 2 %
same,BW,[3]; [13],203 ± 14
same,ΔW (%),[3]; [14],3 ± 2 %
same,BW,[3]; [14],200 ± 15
same,ΔW (%),[3]; [15],17 ± 5%
same,BW,[3]; [15],245 ± 12
same,ΔW (%),[3]; [16],14 ± 2 %
same,BW,[3]; [16],238 ± 6
same,ΔW (%),[3]; [17],25 ± 4 %
same,BW,[3]; [17],224 ± 11
same,ΔW (%),[3]; [18],21 ± 7 %
same,BW,[3]; [18],212 ± 14
same,ΔW (%),[3]; [19],53 ± 14%
same,BW,[3]; [19],280 ± 18
same,ΔW (%),[3]; [20],31 ± 10%
same,BW,[3]; [20],270 ± 6
same,ΔW (%),[3]; [21],29 ± 6 %
same,BW,[3]; [21],230 ± 15
same,ΔW (%),[3]; [22],23 ± 6 %
same,BW,[3]; [22],223 ± 20
same,ΔW (%),[3]; [23],75 ± 14%
same,BW,[3]; [23],320 ± 18
same,ΔW (%),[3]; [24],66 ± 15 %
same,BW,[3]; [24],296 ± 8
same,ΔW (%),[3]; [25],31 ± 5 %
same,BW,[3]; [25],235 ± 12
same,ΔW (%),[3]; [26],21 ± 6 %
same,BW,[3]; [26],221 ± 19
same,ΔW (%),[3]; [27],84 ± 14%
same,BW,[3]; [27],337 ± 18
same,ΔW (%),[3]; [28],71 ± 16 %
same,BW,[3]; [28],304 ± 10
same,solubility,"[4]; methanol, organic solvent or mixture, methanol, read-out: Solubility in methanol",1890 mg/mL
same,solubility,"[4]; water, read-out: Solubility in water",2980 mg/mL
same,Stability,[5]; in methanol solution,>24 h
same,Stability,[5]; in water,>24 h
same,Sub-acute,Rat; ig,>20 mg/kg
same,Sub-acute,Rat; iv,>12 mg/kg
same,LD50,[6]; iv,246 mg/kg
same,LD50,[6]; po,726 mg/kg
same,LD50,[7]; iv,323 mg/kg
same,LD50,[7]; po,927 mg/kg
